Activity calls are given as the source filed them. No rule for the calls is given here.
Tested on: CCRIS mutagenicity, Ames/micronucleus/aberration tests
Experiment: CCRIS mutagenicity studies
[1] = Test System: AMES SALMONELLA TYPHIMURIUM, Strain/Indicator: TA98, Metabolic Activation: NONE, Method: PREINCUBATION
[2] = Test System: AMES SALMONELLA TYPHIMURIUM, Strain/Indicator: TA100, Metabolic Activation: NONE, Method: PREINCUBATION

Measured: mutagenic call

O=c1[nH]c(=O)n([C@H]2C[C@H](O)[C@@H](CO)O2)cc1I
inactive: Test System: AMES SALMONELLA TYPHIMURIUM, Strain/Indicator: TA97, Metabolic Activation: NONE, Method: PREINCUBATION inactive; negative | Test System: AMES SALMONELLA TYPHIMURIUM, Strain/Indicator: TA97, Metabolic Activation: RAT, LIVER, S-9, AROCLOR 1254, Method: PREINCUBATION inactive; negative | [1] inactive; negative | Test System: AMES SALMONELLA TYPHIMURIUM, Strain/Indicator: TA98, Metabolic Activation: RAT, LIVER, S-9, AROCLOR 1254, Method: PREINCUBATION inactive; negative | [2] inactive; negative | Test System: AMES SALMONELLA TYPHIMURIUM, Strain/Indicator: TA100, Metabolic Activation: RAT, LIVER, S-9, AROCLOR 1254, Method: PREINCUBATION inactive; negative | Test System: AMES SALMONELLA TYPHIMURIUM, Strain/Indicator: TA102, Metabolic Activation: NONE, Method: PREINCUBATION inactive; negative | Test System: AMES SALMONELLA TYPHIMURIUM, Strain/Indicator: TA102, Metabolic Activation: RAT, LIVER, S-9, AROCLOR 1254, Method: PREINCUBATION inactive; negative | Test System: AMES SALMONELLA TYPHIMURIUM, Strain/Indicator: TA104, Metabolic Activation: NONE, Method: PREINCUBATION inactive; negative | Test System: AMES SALMONELLA TYPHIMURIUM, Strain/Indicator: TA104, Metabolic Activation: RAT, LIVER, S-9, AROCLOR 1254, Method: PREINCUBATION inactive; negative | Test System: AMES SALMONELLA TYPHIMURIUM, Strain/Indicator: TA1535, Metabolic Activation: NONE, Method: PREINCUBATION inactive; negative | Test System: AMES SALMONELLA TYPHIMURIUM, Strain/Indicator: TA1535, Metabolic Activation: RAT, LIVER, S-9, AROCLOR 1254, Method: PREINCUBATION inactive; negative | Test System: AMES SALMONELLA TYPHIMURIUM, Strain/Indicator: TA1537, Metabolic Activation: NONE, Method: PREINCUBATION inactive; negative | Test System: AMES SALMONELLA TYPHIMURIUM, Strain/Indicator: TA1537, Metabolic Activation: RAT, LIVER, S-9, AROCLOR 1254, Method: PREINCUBATION inactive; negative | Test System: AMES SALMONELLA TYPHIMURIUM, Strain/Indicator: TA1538, Metabolic Activation: NONE, Method: PREINCUBATION inactive; negative | Test System: AMES SALMONELLA TYPHIMURIUM, Strain/Indicator: TA1538, Metabolic Activation: RAT, LIVER, S-9, AROCLOR 1254, Method: PREINCUBATION inactive; negative | Test System: UDS RODENT HEPATOCYTES, Strain/Indicator: THY INCORP, Metabolic Activation: NONE inactive; negative
active: Test System: CHINESE HAMSTER V-79, Strain/Indicator: V-79/8-AZAGUANINE, Metabolic Activation: NONE active; positive

CC(=O)c1cc(O)c(C(C)C)c2cc(C)c(-c3c(C)cc4c(C(C)C)c(O)c(O)c(C=O)c4c3O)c(O)c12
inactive: Test System: AMES SALMONELLA TYPHIMURIUM, Strain/Indicator: TA97A, Metabolic Activation: S-9, Method: STANDARD PLATE inactive; negative | Test System: AMES SALMONELLA TYPHIMURIUM, Strain/Indicator: TA98, Metabolic Activation: S-9, Method: STANDARD PLATE inactive; negative | Test System: AMES SALMONELLA TYPHIMURIUM, Strain/Indicator: TA100, Metabolic Activation: S-9, Method: STANDARD PLATE inactive; negative | Test System: AMES SALMONELLA TYPHIMURIUM, Strain/Indicator: TA102, Metabolic Activation: S-9, Method: STANDARD PLATE inactive; negative

COc1ccc2c(c1)c(CC(=O)O)c(C)n2C(=O)c1ccc(Cl)cc1
inactive: Test System: AMES SALMONELLA TYPHIMURIUM, Strain/Indicator: TA98, Metabolic Activation: GUINEA PIG, LIVER, S-9, PCB, Method: PREINCUBATION inactive; negative | Test System: AMES SALMONELLA TYPHIMURIUM, Strain/Indicator: TA98, Metabolic Activation: HAMSTER, LIVER, S-9, PCB, Method: PREINCUBATION inactive; negative | Test System: AMES SALMONELLA TYPHIMURIUM, Strain/Indicator: TA98, Metabolic Activation: MOUSE, LIVER, S-9, PCB, Method: PREINCUBATION inactive; negative | [1] inactive; negative | Test System: AMES SALMONELLA TYPHIMURIUM, Strain/Indicator: TA98, Metabolic Activation: RAT, LIVER, S-9, PCB, Method: PREINCUBATION inactive; negative | Test System: AMES SALMONELLA TYPHIMURIUM, Strain/Indicator: TA98, Metabolic Activation: RAT, LIVER, S-9, PCB, Method: STANDARD PLATE inactive; negative | Test System: AMES SALMONELLA TYPHIMURIUM, Strain/Indicator: TA100, Metabolic Activation: GUINEA PIG, LIVER, S-9, PCB, Method: PREINCUBATION inactive; negative | Test System: AMES SALMONELLA TYPHIMURIUM, Strain/Indicator: TA100, Metabolic Activation: HAMSTER, LIVER, S-9, PCB, Method: PREINCUBATION inactive; negative | Test System: AMES SALMONELLA TYPHIMURIUM, Strain/Indicator: TA100, Metabolic Activation: MOUSE, LIVER, S-9, PCB, Method: PREINCUBATION inactive; negative | [2] inactive; negative | Test System: AMES SALMONELLA TYPHIMURIUM, Strain/Indicator: TA100, Metabolic Activation: RAT, LIVER, S-9, PCB, Method: STANDARD PLATE inactive; negative | Test System: AMES SALMONELLA TYPHIMURIUM, Strain/Indicator: TA1537, Metabolic Activation: RAT, LIVER, S-9, PCB, Method: STANDARD PLATE inactive; negative | Test System: AMES SALMONELLA TYPHIMURIUM, Strain/Indicator: TA1538, Metabolic Activation: RAT, LIVER, S-9, PCB, Method: STANDARD PLATE inactive; negative | Test System: E. COLI, Strain/Indicator: WP2 UVRA, Metabolic Activation: RAT, LIVER, S-9, PCB, Method: STANDARD PLATE inactive; negative
active: Test System: AMES SALMONELLA TYPHIMURIUM, Strain/Indicator: TA100, Metabolic Activation: RAT, LIVER, S-9, PCB, Method: PREINCUBATION active; positive

Source: PubChem BioAssay AID1259407 (Chemical Carcinogenesis Research Information System (CCRIS), 2018)
